From patent US20240109917A1 (ACTELION PHARMACEUTICALS LTD, priority 2020, published 2024)
pIC50: −log10 of the molar value. Like-named read-outs stand apart in the source and are kept apart here.

Columns and labels:
[1] = target: Tb-labeled inactive PDGFRβ (Homo sapiens (Human), UniProt P09619); assay: PDGFRβ LanthaScreen Assay; format: binding; conditions: read-out: PDGFR Lantha IC50
PDGFRβ = PDGFRβ (Rattus norvegicus (Rat), UniProt Q05030); assay: PDGFRβ Cellular Assay (PDGFRb P-Y751 HTRF in A10 cells stimulated with PDGF-BB); format: cell-based
Sequence of PDGFRβ (Q05030 32-1097): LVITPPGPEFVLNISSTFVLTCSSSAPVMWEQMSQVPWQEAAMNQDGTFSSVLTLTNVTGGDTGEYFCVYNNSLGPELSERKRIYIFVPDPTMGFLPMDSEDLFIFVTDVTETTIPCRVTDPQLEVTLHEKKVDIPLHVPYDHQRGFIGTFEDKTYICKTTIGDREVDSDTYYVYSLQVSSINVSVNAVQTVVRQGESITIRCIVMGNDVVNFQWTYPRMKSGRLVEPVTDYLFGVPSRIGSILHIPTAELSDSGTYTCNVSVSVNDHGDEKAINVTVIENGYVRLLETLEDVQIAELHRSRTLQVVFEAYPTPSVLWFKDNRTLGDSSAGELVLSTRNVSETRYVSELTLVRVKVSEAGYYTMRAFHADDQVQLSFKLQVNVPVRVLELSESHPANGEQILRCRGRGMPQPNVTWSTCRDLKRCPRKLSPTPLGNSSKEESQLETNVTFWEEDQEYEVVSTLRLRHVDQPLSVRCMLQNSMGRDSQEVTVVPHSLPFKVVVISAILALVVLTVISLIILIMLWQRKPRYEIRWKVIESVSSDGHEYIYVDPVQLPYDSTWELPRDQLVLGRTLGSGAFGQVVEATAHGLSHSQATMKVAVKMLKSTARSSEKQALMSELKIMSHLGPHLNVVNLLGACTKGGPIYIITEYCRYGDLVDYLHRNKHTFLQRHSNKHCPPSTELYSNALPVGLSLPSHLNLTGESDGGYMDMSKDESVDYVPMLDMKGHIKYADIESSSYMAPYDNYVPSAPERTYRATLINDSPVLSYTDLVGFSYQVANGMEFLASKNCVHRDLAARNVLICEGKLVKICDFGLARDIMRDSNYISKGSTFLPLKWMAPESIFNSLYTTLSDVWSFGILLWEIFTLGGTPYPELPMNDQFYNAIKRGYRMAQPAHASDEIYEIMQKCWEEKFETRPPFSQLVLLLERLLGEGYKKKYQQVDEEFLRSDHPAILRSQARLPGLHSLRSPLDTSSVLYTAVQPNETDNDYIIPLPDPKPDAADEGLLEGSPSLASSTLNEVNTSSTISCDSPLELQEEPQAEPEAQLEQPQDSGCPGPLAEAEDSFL
How it was run: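 Rat A10 cells, plated overnight, were treated with compound for 3 hours, then stimulated with PDGF-BB (working stock 100 ng/mL in 10% FBS medium). After lysis, PDGFRβ P-Y751 was detected by HTRF.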

Sequence of Tb-labeled inactive PDGFRβ (P09619 33-1106): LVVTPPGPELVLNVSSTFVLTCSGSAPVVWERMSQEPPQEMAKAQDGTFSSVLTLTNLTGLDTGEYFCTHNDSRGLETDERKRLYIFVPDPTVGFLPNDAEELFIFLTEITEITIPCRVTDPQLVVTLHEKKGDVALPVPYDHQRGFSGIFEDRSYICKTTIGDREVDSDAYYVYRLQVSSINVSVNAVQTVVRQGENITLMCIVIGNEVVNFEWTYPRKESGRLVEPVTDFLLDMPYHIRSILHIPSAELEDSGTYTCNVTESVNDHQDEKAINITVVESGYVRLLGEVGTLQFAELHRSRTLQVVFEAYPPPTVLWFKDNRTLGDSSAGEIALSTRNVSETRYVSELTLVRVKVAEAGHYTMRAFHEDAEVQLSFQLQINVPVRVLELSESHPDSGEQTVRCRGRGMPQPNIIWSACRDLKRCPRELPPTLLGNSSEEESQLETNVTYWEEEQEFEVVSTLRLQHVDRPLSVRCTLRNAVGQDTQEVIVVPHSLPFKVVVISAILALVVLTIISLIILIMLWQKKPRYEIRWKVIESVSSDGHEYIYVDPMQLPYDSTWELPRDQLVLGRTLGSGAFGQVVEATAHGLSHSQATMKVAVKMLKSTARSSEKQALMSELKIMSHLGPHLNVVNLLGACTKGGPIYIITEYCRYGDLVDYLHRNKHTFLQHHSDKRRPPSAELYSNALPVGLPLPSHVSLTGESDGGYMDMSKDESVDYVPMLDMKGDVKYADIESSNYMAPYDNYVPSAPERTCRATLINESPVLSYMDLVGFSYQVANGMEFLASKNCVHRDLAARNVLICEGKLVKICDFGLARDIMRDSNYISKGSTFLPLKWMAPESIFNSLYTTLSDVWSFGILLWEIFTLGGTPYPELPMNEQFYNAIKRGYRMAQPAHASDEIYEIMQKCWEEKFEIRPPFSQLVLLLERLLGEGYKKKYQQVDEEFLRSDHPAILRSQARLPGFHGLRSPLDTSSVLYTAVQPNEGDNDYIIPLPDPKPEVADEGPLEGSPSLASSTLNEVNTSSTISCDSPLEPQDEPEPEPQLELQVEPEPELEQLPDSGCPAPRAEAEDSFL

COc1ncccc1-c1cn2ncc(C(=O)Nc3cc(NC(=O)CN4CCC5(CCOC5)C4)cnc3C)c2s1 (centres unmarked) [Example 320, N-(5-(2-(2-oxa-7-azaspiro[4.4]nonan-7-yl)acetamido)-2-methylpyridin-3-yl)-2-(2-methoxypyridin-3-yl)pyrazolo[5,1-b]thiazole-7-carboxamide]
pIC50 [1]: 8.85 | pIC50 (PDGFRβ; read-out: PDGFR Cellular IC50): 8.80

COc1ncccc1-c1cn2ncc(C(=O)Nc3cc(NC(=O)C4CCCCN4C(C)C)cnc3C)c2s1 (centres unmarked) [Example 315, N-(5-(1-isopropylpiperidine-2-carboxamido)-2-methylpyridin-3-yl)-2-(2-methoxypyridin-3-yl)pyrazolo[5,1-b]thiazole-7-carboxamide]
pIC50 [1]: 8.34 | pIC50 (PDGFRβ; read-out: PDGFR Cellular IC50): 8.27

Cc1ncc(NC(=O)CN2CC(C)(C)C2)cc1NC(=O)c1cnn2cc(-c3cnn(C4COC4)c3)sc12 [Example 264, N-(5-(2-(3,3-dimethylazetidin-1-yl)acetamido)-2-methylpyridin-3-yl)-2-(1-(oxetan-3-yl)-1H-pyrazol-4-yl)pyrazolo[5,1-b]thiazole-7-carboxamide]
pIC50 [1]: 8.21 | pIC50 (PDGFRβ; read-out: PDGFR Cellular IC50): 8.12

COCCn1cc(-c2cn3ncc(C(=O)Nc4cc(NC(=O)CN5CCC[C@H]5C)cnc4C)c3s2)cn1 [Example 330, (R)-2-(1-(2-methoxyethyl)-1H-pyrazol-4-yl)-N-(2-methyl-5-(2-(2-methylpyrrolidin-1-yl)acetamido)pyridin-3-yl)pyrazolo[5,1-b]thiazole-7-carboxamide]
pIC50 [1]: 8.02 | pIC50 (PDGFRβ; read-out: PDGFR Cellular IC50): 8.17

Cc1ncc(NC(=O)CN2CC(C)(C)C2)cc1NC(=O)c1cnn2cc(-c3ccnc(N4CCOCC4)c3)sc12 [Example 284, N-(5-(2-(3,3-dimethylazetidin-1-yl)acetamido)-2-methylpyridin-3-yl)-2-(2-morpholinopyridin-4-yl)pyrazolo[5,1-b]thiazole-7-carboxamide]
pIC50 [1]: 8.59 | pIC50 (PDGFRβ; read-out: PDGFR Cellular IC50): 8.55

CC[C@H]1CN(CC(=O)Nc2cnc(C)c(NC(=O)c3cnn4cc(-c5cccnc5OC)sc34)c2)CCO1 [Example 311, (S)—N-(5-(2-(2-ethylmorpholino)acetamido)-2-methylpyridin-3-yl)-2-(2-methoxypyridin-3-yl)pyrazolo[5,1-b]thiazole-7-carboxamide]
pIC50 [1]: 8.89 | pIC50 (PDGFRβ; read-out: PDGFR Cellular IC50): 8.62

Cc1ncc(NC(=O)CN2CC(C)(C)C2)cc1NC(=O)c1cnn2cc(-c3cnn(-c4cccnc4)c3)sc12 [Example 289, N-(5-(2-(3,3-dimethylazetidin-1-yl)acetamido)-2-methylpyridin-3-yl)-2-(1-(pyridin-3-yl)-1H-pyrazol-4-yl)pyrazolo[5,1-b]thiazole-7-carboxamide]
pIC50 [1]: 8.15 | pIC50 (PDGFRβ; read-out: PDGFR Cellular IC50): 8.36

Cc1ncc(NC(=O)CN2CC(C)(C)C2)cc1NC(=O)c1cnn2cc(-c3cnn(C4CCS(=O)(=O)CC4)c3)sc12 [Example 280, N-(5-(2-(3,3-dimethylazetidin-1-yl)acetamido)-2-methylpyridin-3-yl)-2-(1-(1,1-dioxidotetrahydro-2H-thiopyran-4-yl)-1H-pyrazol-4-yl)pyrazolo[5,1-b]thiazole-7-carboxamide]
pIC50 [1]: 8.37 | pIC50 (PDGFRβ; read-out: PDGFR Cellular IC50): 7.07

Cc1ncc(NC(=O)CN2CC(C)(C)C2)cc1NC(=O)c1cnn2cc(-c3ccn(S(C)(=O)=O)c3)sc12 [Example 275, N-(5-(2-(3,3-dimethylazetidin-1-yl)acetamido)-2-methylpyridin-3-yl)-2-(1-(methylsulfonyl)-1H-pyrrol-3-yl)pyrazolo[5,1-b]thiazole-7-carboxamide]
pIC50 [1]: 8.60 | pIC50 (PDGFRβ; PDGFR Cellular IC50): 8.12

Cc1ncc(NC(=O)C(C)N2CCCCCC2)cc1NC(=O)c1cnn2cc(-c3cnn(C)c3)sc12 (centres unmarked) [Example 306, N-(5-(2-(azepan-1-yl)propanamido)-2-methylpyridin-3-yl)-2-(1-methyl-1H-pyrazol-4-yl)pyrazolo[5,1-b]thiazole-7-carboxamide]
pIC50 [1]: 8.05 | pIC50 (PDGFRβ; read-out: PDGFR Cellular IC50): 8.32

Cc1ncc(NC(=O)CN2CC(C)(C)C2)cc1NC(=O)c1cnn2cc(-c3ccoc3)sc12 [Example 283, N-(5-(2-(3,3-dimethylazetidin-1-yl)acetamido)-2-methylpyridin-3-yl)-2-(furan-3-yl)pyrazolo[5,1-b]thiazole-7-carboxamide]
pIC50 [1]: 8.66 | pIC50 (PDGFRβ; read-out: PDGFR Cellular IC50): 8.82

Cc1ncc(NC(=O)C2CCCCN2C(C)C)cc1NC(=O)c1cnn2cc(-c3cccnc3O)sc12 (centres unmarked) [Example 314, 2-(2-hydroxypyridin-3-yl)-N-(5-(1-isopropylpiperidine-2-carboxamido)-2-methylpyridin-3-yl)pyrazolo[5,1-b]thiazole-7-carboxamide]
pIC50 [1]: 7.19 | pIC50 (PDGFRβ; read-out: PDGFR Cellular IC50): 6.26

Cc1ncc(NC(=O)CN2CC(C)(C)C2)cc1NC(=O)c1cnn2cc(-c3cnn(CCO)c3)sc12 [Example 290, N-(5-(2-(3,3-dimethylazetidin-1-yl)acetamido)-2-methylpyridin-3-yl)-2-(1-(2-hydroxyethyl)-1H-pyrazol-4-yl)pyrazolo[5,1-b]thiazole-7-carboxamide]
pIC50 [1]: 8.48 | pIC50 (PDGFRβ; read-out: PDGFR Cellular IC50): 7.71

Cc1ncc(NC(=O)CN2CCCC2)cc1NC(=O)c1cnn2cc(-c3cccnc3O)sc12 [Example 312, 2-(2-hydroxypyridin-3-yl)-N-(2-methyl-5-(2-(pyrrolidin-1-yl)acetamido)pyridin-3-yl)pyrazolo[5,1-b]thiazole-7-carboxamide]
pIC50 [1]: 7.41 | pIC50 (PDGFRβ; read-out: PDGFR Cellular IC50): 6.02

Cc1ncc(NC(=O)CN2CC(C)(C)C2)cc1NC(=O)c1cnn2cc(-c3cc[nH]c3)sc12 [Example 285, N-(5-(2-(3,3-dimethylazetidin-1-yl)acetamido)-2-methylpyridin-3-yl)-2-(1H-pyrrol-3-yl)pyrazolo[5,1-b]thiazole-7-carboxamide]
pIC50 [1]: 8.89 | pIC50 (PDGFRβ; read-out: PDGFR Cellular IC50): 8.92

Cc1ncc(NC(=O)CN2CC(C)(C)C2)cc1NC(=O)c1cnn2cc(-c3cnn(CC#N)c3)sc12 [Example 266, 2-(1-(cyanomethyl)-1H-pyrazol-4-yl)-N-(5-(2-(3,3-dimethylazetidin-1-yl)acetamido)-2-methylpyridin-3-yl)pyrazolo[5,1-b]thiazole-7-carboxamide]
pIC50 [1]: 7.95 | pIC50 (PDGFRβ; read-out: PDGFR Cellular IC50): 7.44

Cc1ncc(NC(=O)CN2CCCC23COC3)cc1NC(=O)c1cnn2cc(-c3cnn(C)c3)sc12 [Example 20, N-(5-(2-(2-oxa-5-azaspiro[3.4]octan-5-yl)acetamido)-2-methyl-pyridin-3-yl)-2-(1-methyl-1H-pyrazol-4-yl)pyrazolo[5,1-b]thiazole-7-carboxamide]
pIC50 [1]: 8.09 | pIC50 (PDGFRβ; read-out: PDGFR Cellular IC50): 7.44

Cc1ncc(NC(=O)CN(C)C2CCOCC2)cc1NC(=O)c1cnn2cc(-c3cnn(C(F)F)c3)sc12 [Example 295, 2-(1-(difluoromethyl)-1H-pyrazol-4-yl)-N-(2-methyl-5-(2-(methyl(tetrahydro-2H-pyran-4-yl)amino)acetamido)pyridin-3-yl)pyrazolo[5,1-b]thiazole-7-carboxamide]
pIC50 [1]: 7.87 | pIC50 (PDGFRβ; read-out: PDGFR Cellular IC50): 7.67

Cc1ncc(NC(=O)CN(C)C2CCOCC2)cc1NC(=O)c1cnn2cc(-c3cnn(C4CC4)c3)sc12 [Example 294, 2-(1-cyclopropyl-1H-pyrazol-4-yl)-N-(2-methyl-5-(2-(methyl(tetrahydro-2H-pyran-4-yl)amino)acetamido)pyridin-3-yl)pyrazolo[5,1-b]thiazole-7-carboxamide]
pIC50 [1]: 8.29 | pIC50 (PDGFRβ; read-out: PDGFR Cellular IC50): 7.90
